According to US9862742B2, “Tricyclic nucleosides and oligomeric compounds prepared therefrom” (UNIVERSITAT BERN, priority 2013, dated 2018):
Oligonucleotides are written 5' to 3', each unit as a sugar letter and its base; * is a phosphorothioate linkage, no mark a phosphodiester; rarer units and linkages stand in square brackets, end groups in braces. Plain capitals give the bases only. [6'F-TC-N] = 6'-fluorinated tricyclic nucleoside, subtype b of the publication (N: the base); [F-tcDNA] = 6'-fluoro tricyclic (tricyclo-DNA) nucleoside; [tcDNA-N] = tricyclo-DNA nucleoside (N: the base); [tcDNA] = tricyclo-DNA nucleoside; d = 2'-deoxy (DNA); {P} = phosphate

Experiments:
complementary DNA = experiment: Tm study of oligomeric compounds duplexed with complementary DNA (UV melting); type: binding; settings: 1.2 μM, 150 mM NaCl, 10 mM phosphate, 0.1 mM EDTA, pH 7; for ΔTm/mod (° C.) vs DNA: referenced to unmodified DNA or to the fully modified tricyclo-DNA oligomer
Experimental: (§1) The relative ability of a chemically-modified oligomeric compound to bind to complementary nucleic acid strands, as compared to natural oligonucleotides, is measured by obtaining the melting temperature of a hybridization complex of said chemically-modified oligomeric compound with its complementary unmodified target nucleic acid. The melting temperature (Tm), a characteristic physical property of double helixes, denotes the temperature in degrees centigrade at which 50% helical versus coiled (unhybridized) forms are present. Tm (also commonly referred to as binding affinity) is measured by using the UV spectrum to determine the formation and breakdown (melting) of hybridization. Base stacking, which occurs during hybridization, is accompanied by a reduction in UV absorption (hypochromicity). Consequently a reduction in UV absorption indicates a higher Tm. Following standard automated DNA synthesis protocols oligomeric compounds were prepared comprising one or more tricyclic nucleosides for Tm studies. After cleavage from the solid support, the oligomeric compounds were purified by ion exchange HPLC and analyzed by LCMS using standard procedures. The Tm of the modified 10 mer oligomeric compounds were compared to an unmodified 10 mer DNA oligonucleotide when duplexed to either DNA or RNA. Tm's were determined using a Cary 100 Bio spectrophotometer with the Cary Win UV thermal program was used to measure absorbance vs. temperature. For the Tm experiments, the oligomeric compounds were prepared at a concentration of 1.2 μM in a buffer of 150 mM NaCl, 10 mM phosphate, 0.1 mM EDTA at pH 7. The concentration determined at 85° C. was 1.2 μM after mixing of equal volumes of selected oligomeric compound and complementary RNA or DNA. The oligomeric compounds were hybridized with a complementary RNA or DNA by heating the duplex to 90° C. for 5 minutes and then cooling to room temperature. Tm measurements were taken using a spectrophotometer while the duplex solution was heated in a cuvette at a rate of 0.5° C./min starting at 15° C. until the temperature was 85° C. Tm values were determined using Vant Hoff calculations (A260 vs temperature curve) using non self-complementary sequences where the minimum absorbance related to the duplex and the maximum absorbance related to the non-duplex single strand are manually integrated into the program.

complementary RNA = experiment: Tm study of oligomeric compounds duplexed with complementary RNA (UV melting); type: binding; settings: 1.2 μM, 150 mM NaCl, 10 mM phosphate, 0.1 mM EDTA, pH 7; for ΔTm/mod (° C.) vs RNA: referenced to unmodified DNA or to the fully modified tricyclo-DNA oligomer
Experimental: as §1

[1] = system: exon 23 of the mouse dystrophin gene; experiment: Exon 23 skipping in primary mdx cells, gymnotic delivery, RT-PCR/nested PCR and gel electrophoresis; type: cell-based; settings: for exon skipping (exon 23, gel of nested PCR products): 50 μg (approx 9 nmol) oligonucleotide, no transfection agent (gymnosis), harvested 4 days after transfection
Excerpt: The mdx mouse represents a model for the human genetic disease Duchenne muscular dystrophy. It contains a mutation in exon 23 of the mouse dystrophin gene which gives rise to a premature stop codon. As a consequence no functional dystrophin mRNA and dystrophin protein is produced. It is known in the field (Lu et al., Proc Natl Acad Sci USA 2005, 102, 198-203) that administration of an antisense oligonucleotide designed to bind to the exon/intron junction of exon 23 leads to skipping of exon 23 during mRNA splicing and thus to a functional variant of the mouse dystrophin protein.
To test the exon skipping potential of A20-A23, mdx primary cells (mdx mouse) were transfected without transfection agents (gymnosis) with 50 μg (approx 9 nmol) of each oligonucleotide A20 to A23. Cells were harvested 4 days after transfection and the RNA was extracted. RT-PCR and nested PCR around exon 23 (EX20F/Ex26R) was performed and the products analyzed by gel electrophoresis (FIG. 1).
The slower moving band correspond to nonskipped RNA (including […]) while the faster moving band corresponds to skipped ([…] excluded) RNA.

Substance | ΔTm/mod (° C.) vs DNA (complementary DNA) | ΔTm/mod (° C.) vs RNA (complementary RNA) | other results
15 (AACT_{d}GT_{d}CACG; as printed in the source, key not given here) [compound 15] | −4.3 °C | −3.0 °C | 
SEQ ID NO. 21: pAaAaCbCbTbCbGaGaCbTbTbAaCbCbTb, fluoro-oligonucleotide 15-mer, PS linkages, 5′-phosphate, C is 5-methylcytosine (AACCTCGGCTTACCT; fluoro tricyclo-DNA, PS, 5′-phosphate, 5-methylcytosine; Sequence for biophysical analysis; (1)..(1) tricyclic nucleoside according to fomula I with T1 being phosphate, T2 being phosphorothioate, Bx being adenine and the other substituents being hydrogen; (2)..(2) tricyclic nucleoside according to fomula I with T1 and T2 being phosphorothioate, Bx being adenine and the other substituents being hydrogen; (3)..(3) tricyclic nucleoside according to fomula) |  |  | exon skipping (exon 23, gel of nested PCR products) [1]: substantial exon skipping; exon skipping, qualitative comparison with A21 ([1]; 50 μg, gymnosis, 4 days): slightly superior compared to A21
SEQ ID NO. 19: pAaAaCaCaTaCaGaGaCaTaTaAaCaCaTa, 15-mer tricyclo-DNA, PS linkages, 5′-phosphate, no fluorine substituents ({P}-[tcDNA-A]*[tcDNA-A]*[tcDNA-C]*[tcDNA-C]*[tcDNA-T]*[tcDNA-C]*[tcDNA-G]*[tcDNA-G]*[tcDNA-C]*[tcDNA-T]*[tcDNA-T]*[tcDNA-A]*[tcDNA-C]*[tcDNA-C]*[tcDNA-T]) [reference compound] |  |  | exon skipping (exon 23, gel of nested PCR products) [1]: substantial exon skipping
17 (GCAT_{d}T_{d}T_{d}T_{d}T_{d}ACCG; as printed in the source, key not given here) [compound 17] | -1.1 °C | +0.6 °C | 
03 (dAdAdCdTdG[6'F-TC-T]dCdAdCdG) [compound 03] | +2.0 °C | +0.4 °C | 
SEQ ID NO. 06: pAaAaCaTaGaTaCaAaCaGa, fully modified tricyclo-DNA, 5′-phosphorylated (AACTGTCACG; all [tcDNA-N], all phosphodiester, 5' {P}, methylation of C not given here) [reference compound] |  |  | Tm duplexed with DNA (complementary DNA): 55.0 °C; Tm duplexed with RNA (complementary RNA): 66.2 °C
02 (AACTGTCACG; sugars from the 5' end d5 [tcDNA]1 d4, all phosphodiester, methylation of C not given here) [compound 02] | +2.1 °C | +0.9 °C | 
13 (AACTGT_{d}CACG; as printed in the source, key not given here) [compound 13] | −4.5 °C | −4.7 °C | 
14 (AACT_{d}GTCACG; as printed in the source, key not given here) [compound 14] | −2.7 °C | −2.5 °C | 
SEQ ID NO. 07: pAaAaCaTaGaTbCaAaCaGa, tricyclo-DNA backbone with one 6′-fluoro residue, 5′-phosphorylated (AACTGTCACG; sugars from the 5' end [tcDNA]5 [F-tcDNA]1 [tcDNA]4, all phosphodiester, 5' {P}, methylation of C not given here) |  | up to +0.7 °C | 
SEQ ID NO. 17: GCATdTdTdTdTdACCG, 5 consecutive arabinofluoro residues (GCATTTTTACCG; listed as DNA, chemistry not fully specified) |  | +0.6 °C | 
SEQ ID NO. 01: unmodified 10 mer DNA oligonucleotide AACTGTCACG, phosphodiester (unmodified DNA) [reference compound] |  |  | Tm duplexed with DNA (complementary DNA): 43.5 °C; Tm duplexed with RNA (complementary RNA): 45.1 °C
12 (AACT_{c}GT_{c}CACG; as printed in the source, key not given here) [compound 12] | +1.8 °C | +2.8 °C | 
08 (pA_{a}A_{a}C_{a}T_{b}G_{a}T_{a}C_{a}A_{a}C_{a}G_{a}; as printed in the source, key not given here) [compound 08] | −1.6 °C | +0.3 °C | 
04 (dAdAdC[6'F-TC-T]dGdTdCdAdCdG) [compound 04] | +1.6 °C | +0.7 °C | 
07 (pA_{a}A_{a}C_{a}T_{a}G_{a}T_{b}C_{a}A_{a}C_{a}G_{a}; as printed in the source, key not given here) [compound 07] | 0 °C | +0.7 °C | 
10 (AACTGT_{c}CACG; as printed in the source, key not given here) [compound 10] | +1.8 °C | +0.9 °C | 
SEQ ID NO. 16: unmodified oligonucleotide GCATTTTTACCG (unmodified DNA) [reference compound] |  |  | Tm duplexed with DNA (complementary DNA): 45.6 °C; Tm duplexed with RNA (complementary RNA): 42.2 °C
01 (AACTGTCACG; unmodified DNA) [compound 01] | 0 °C | 0 °C | 
16 (GCATTTTTACCG; unmodified DNA) [compound 16] | 0 °C | 0 °C | 
09 (pA_{a}A_{a}C_{a}T_{b}G_{a}T_{b}C_{a}A_{a}C_{a}G_{a}; as printed in the source, key not given here) [compound 09] | −1.8 °C | −0.2 °C | 
06 (pA_{a}A_{a}C_{a}T_{a}G_{a}T_{a}C_{a}A_{a}C_{a}G_{a}; fully modified with subtype a nucleosides (not given here), 5'-phosphate, phosphodiester, as printed in the source, key not given here) [compound 06] | 0 °C | 0 °C | 
05 (dAdAdC[6'F-TC-T]dG[6'F-TC-T]dCdAdCdG) [compound 05] | 0 °C | 0 °C | 
